From patent US5703085A, “Xanthine derivatives” (Kyowa Hakko Kogyo Co., Ltd., priority 1994, dated 1997)
Read-outs that look alike come from different tables or passages of the source.

Key:
[1] = Effect on clonidine-induced aggressive behavior; format: in vivo, male ddY mice; conditions: po, clonidine 20 mg/kg ip; for Number of the Biting Attacks (mean ± S.E.M.), Test Compound-Treated Group: 30 min count
Method: Effect on Clonidine-Induced Aggressive Behavior
The enhancement effect of the test compounds on the aggressive behavior induced by intraperitoneal administration of clonidine [Eur. J. Pharmacol., 29, 374 (1968)] was investigated.
The experiment was performed using several groups of male ddY mice weighing 20 to 25 g (Japan SLC), each group consisting of two mice. A test compound was suspended in injectable distilled water (manufactured by Otsuka Pharmaceutical Co., Ltd.) after adding Tween 80. Clonidine hydrochloride (manufactured by Sigma Co.) was dissolved in physiological saline solution (manufactured by Otsuka Pharmaceutical Co., Ltd.). The suspension containing the test compound and the suspension containing no test compound (control) were orally administered to the separate groups of the mice (0.1 ml per 10 g of body weight). Sixty minutes after the oral administration of the test compound, clonidine hydrochloride (20 mg/kg) was intraperitoneally administered. The number of biting attacks during the 30 minutes immediately after the clonidine treatment was counted. The effect of the compounds was evaluated by comparing the number of biting attacks of the test compound-administered groups with that of control groups (significance test: Student' t-test).

[2] = biological target: T1, A2 Receptor (Rattus norvegicus, UniProt P30543); assay: Adenosine A2 receptor binding test (inhibition of 3H-CGS 21680 binding); conditions: rat corpus striatum, 3H-CGS 21680 4.0 nM
T1 construct: from tissue; host or cells: rat corpus striatum (membrane suspension)
T1 sequence (P30543 whole entry): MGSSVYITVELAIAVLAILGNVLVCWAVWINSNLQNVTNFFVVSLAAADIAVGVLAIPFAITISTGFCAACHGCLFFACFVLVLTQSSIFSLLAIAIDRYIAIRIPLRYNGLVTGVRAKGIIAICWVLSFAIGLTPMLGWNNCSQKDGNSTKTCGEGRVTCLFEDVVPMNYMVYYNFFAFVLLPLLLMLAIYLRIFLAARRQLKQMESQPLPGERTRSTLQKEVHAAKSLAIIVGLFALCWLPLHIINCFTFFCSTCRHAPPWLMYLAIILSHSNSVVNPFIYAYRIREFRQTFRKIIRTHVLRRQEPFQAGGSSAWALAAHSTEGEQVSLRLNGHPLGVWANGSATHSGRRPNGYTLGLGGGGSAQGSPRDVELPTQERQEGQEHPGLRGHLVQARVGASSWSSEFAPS
Method: Adenosine Receptor Antagonistic Activity (Adenosine A2 Receptor Binding Test)
The test was conducted according to the method of Bruns et al. [Mol. Pharmacol., 29, 331 (1986)] with slight modification.
Corpus striatum of a rat was suspended in ice-cooled 50 mM Tris (hydroxymethyl) aminomethane hydrochloride (Tris HCl) buffer (pH 7.7) by using Polytron homogenizer (manufactured by Kinematica Co.). The suspension was centrifuged (50,000×g, 10 minutes), and the precipitate was suspended again in the same amount of 50 mM Tris HCl buffer. The suspension was centrifuged under the same conditions, and the final precipitate was suspended in 50 mM Tris HCl buffer [containing 10 mM magnesium chloride and 0.02 unit/mg tissue of adenosine deaminase (manufactured by Sigma Co.)] to give a tissue concentration of 5 mg (wet weight)/ml.
To 1 ml of the tissue suspension thus prepared were added 50 μl of tritium labeled CGS 21680 {^3 H-2-[p-(2-carboxyethyl) phenethylamino]-5'-(N-ethylcarboxamide)-adenosine: 40 Ci/mmol; manufactured by New England Nuclear Co. [J. Pharmacol. Exp. Ther., 251, 888 (1989)]} (final concentration: 4.0 nM) and 50 μl of a test compound. The resulting mixture was allowed to stand at 25° C. for 120 minutes and then rapidly filtered by suction through a glass fiber filter (GF/C; manufactured by Whatman Co.). The filter was immediately washed three times with 5 ml each of ice-cooled 50 mM Tris HCl buffer, and transferred to a vial, and a scintillator (EX-H; manufactured by Wako Pure Chemical Industries, Ltd.) was added thereto. The radioactivity on the filter was determined with a liquid scintillation counter (manufactured by Packard Instrument Co.).
The inhibition rate of the test compound against the binding of A2 receptors (^3 H-CGS 21680 binding) was calculated by the following equation: [formula] [Notes]B: Amount of the binding in the presence of the test compound.
T: Amount of the total binding.
N: Amount of the nonspecific binding.
Amount of the total binding means the amount of radioactivity of ^3 H-CGS 21680 bound in the absence of the test compound. Amount of the nonspecific binding means the amount of radioactivity of ^3 H-CGS 21680 bound in the presence of 100 μM cyclopentyladenosine (CPA; manufactured by Sigma Co.). Amount of the binding in the presence of the test compound means the amount of radioactivity of ^3 H-CGS 21680 bound in the presence of the test compound at various levels of concentrations.

[3] = Effect on haloperidol-induced catalepsy; format: in vivo, male ddY mice; conditions: 10 mg/kg po; for Total Score (catalepsy): 1 h after compound; for inhibition in vivo at 10 mg/kg: Mus musculus, 1 h, decrease in total score vs control group, read-out: Remission Rate (%)
Method: Effect on Haloperidol-Induced Catalepsy
Parkinson's disease is a clinical syndrome caused by degeneration and cell death of nigrostriatal dopaminergic neurons. Administration of haloperidol (dopamine D1 /D2 antagonist) induces catalepsy resulting from the blockade of postsynaptic dopamine D2 receptors.
The experiment was carried out using several groups of 5-week-old male ddY mice (weighing 22 to 24 g, Japan SLC), each group consisting of 5 or 10 mice. Haloperidol (manufactured by Janssen Pharmaceutica) was suspended in 0.3% CMC and imtraperitoneally administered to each mouse at a dose of 1.0 mg/kg. A test compound was suspended in injectable distilled water (manufactured by Otsuka Pharmaceutical Co., Ltd.) after adding Tween 80 [polyoxyethylene (20) sorbitan monooleate]. L-DOPA (manufactured by Kyowa Hakko Kogyo Co., Ltd.) and benserazide hydrochloride (manufactured by Kyowa Hakko Kogyo Co., Ltd.) were suspended in 0.3% CMC. One hour after the intraperitoneal administration of haloperidol, the suspension containing the test compound or the suspension containing no test compound [injectable distilled water (manufactured by Otsuka Pharmaceutical Co., Ltd.) containing Tween 80; control] were orally administered to the separate groups of the mice (0.1 ml per 10 g of body weight). One hour after the administration of the test compound, the forelimbs of each mouse and subsequently the hindlimbs of the same mouse were placed on a 4.5 cm-high, 1.0 cm-wide bar and catalepsy was estimated. All of the test compounds were orally administered at a dose of 10 mg/kg, and L-DOPA (100 mg/kg) and benserazide (25 mg/kg) were intraperitoneally administered together as a control. The catalepsy score and the standard of judgment are shown below. […]
Score Duration of the category
0: forelimbs less than 5 seconds
hindlimbs less than 5 seconds
1: forelimbs from 5 (inclusive)
to 10 (exclusive) seconds
2: forelimbs 10 seconds or more
3: (1) forelimbs from 5 (inclusive)
hindlimbs from 5 (inclusive)
or (2) forelimbs less than 5 seconds
hindlimbs 5 seconds or more
4: (1) forelimbs 10 seconds or more
or (2) forelimbs from 5 (inclusive)
hindlimbs 10 seconds or more
5: forelimbs 10 seconds or more
The effect of the compounds was evaluated by the total of the catalepsy scores of 5 or 10 mice in each group (25 or 50 points at the maximum). The groups wherein the total score was not more than 20 or 40 points were estimated to be effective. The number of the animals showing remission against catalepsy is the number of the mice for which the catalepsy score was not more than 4 points in 5 or 10 mice.

[4] = 5 mice (max 25 points; control 25)
[5] = out of 5 mice (score not more than 4)
[6] = out of 10 mice (score not more than 4)

SMILES: CCn1c(=O)c2c(nc(/C=C/c3ccc(OC(C)=O)c(OC)c3)n2C)n(CC)c1=O [Compound 5, (E)-8-(4-Acetoxy-3-methoxystyryl)-1,3-diethyl-7-methylxanthine]
- Ratio of Attacks: Test Compd.-Treated Group/Control Group ([1]; 0.63 mg/kg): 4.9
- Number of the Biting Attacks (mean ± S.E.M.), Test Compound-Treated Group ([1]; 0.63 mg/kg): 19.1 ± 6.6
- A2 Receptor Inhibition Rate (%) ([2]; 10^-6 M): 100%
- A2 Receptor Inhibition Rate (%) ([2]; 10^-7 M): 91%
- Total Score (catalepsy) [3, 4]: 2
- Number of Animals Showing Remission [3, 5]: 5
- inhibition in vivo at 10 mg/kg ([3]; 5 mice): 92%

SMILES: CCn1c(=O)c2c(nc(/C=C/c3ccc(OC(=O)c4ccccc4)c(OC)c3)n2C)n(CC)c1=O [Compound 7, (E)-8-(4-Benzoyloxy-3-methoxystyryl)-1,3-diethyl-7-methylxanthine]
- A2 Receptor Inhibition Rate (%) ([2]; 10^-6 M): 97%
- A2 Receptor Inhibition Rate (%) ([2]; 10^-7 M): 87%
- Total Score (catalepsy) [3, 4]: 14
- Number of Animals Showing Remission [3, 5]: 3
- inhibition in vivo at 10 mg/kg ([3]; 5 mice): 44%

SMILES: CCn1c(=O)c2c(nc(/C=C/c3cc(OC)c(OC(C)=O)c(OC)c3)n2C)n(CC)c1=O [Compound 17, (E)-8-(4-Acetoxy-3,5-dimethoxystyryl)-1,3-diethyl-7-methylxanthine]
- A2 Receptor Inhibition Rate (%) ([2]; 10^-6 M): 97%
- A2 Receptor Inhibition Rate (%) ([2]; 10^-7 M): 80%
- Total Score (catalepsy) ([3]; 10 mice (max 50 points)): 30
- Number of Animals Showing Remission [3, 6]: 7
- inhibition in vivo at 10 mg/kg ([3]; 10 mice): 40%

SMILES: CCn1c(=O)c2c(nc(/C=C/c3cccc(OC(C)=O)c3)n2C)n(CC)c1=O [Compound 21, (E)-8-(3-Acetoxystyryl)-1,3-diethyl-7-methylxanthine]
- A2 Receptor Inhibition Rate (%) ([2]; 10^-6 M): 96%
- A2 Receptor Inhibition Rate (%) ([2]; 10^-7 M): 81%

SMILES: CCCn1c(=O)c2c(nc(/C=C/c3ccc(OC(C)=O)c(OC(C)=O)c3)n2C)n(CCC)c1=O [Compound 1, (E)-8-(3,4-Diacetoxystyryl)-7-methyl-1,3-dipropylxanthine]
- A2 Receptor Inhibition Rate (%) ([2]; 10^-6 M): 93%
- A2 Receptor Inhibition Rate (%) ([2]; 10^-7 M): 89%

SMILES: CCn1c(=O)c2c(nc(/C=C/c3ccc(OC)c(OC(C)=O)c3)n2C)n(CC)c1=O [Compound 16, (E)-8-(3-Acetoxy-4-methoxystyryl)-1,3-diethyl-7-methylxanthine]
- A2 Receptor Inhibition Rate (%) ([2]; 10^-6 M): 96%
- A2 Receptor Inhibition Rate (%) ([2]; 10^-7 M): 81%

SMILES: CCn1c(=O)c2c(nc(/C=C/c3cccc(OC)c3OC(C)=O)n2C)n(CC)c1=O [Compound 25, (E)-8-(2-Acetoxy-3-methoxystyryl)-1,3-diethyl-7-methylxanthine]
- A2 Receptor Inhibition Rate (%) ([2]; 10^-6 M): 101%
- A2 Receptor Inhibition Rate (%) ([2]; 10^-7 M): 95%

SMILES: C=CCn1c(=O)c2c(nc(/C=C/c3ccc(OC(C)=O)c(OC)c3)n2C)n(CC=C)c1=O [Compound 15, (E)-8-(4-Acetoxy-3-methoxystyryl)-1,3-diallyl-7-methylxanthine]
- A2 Receptor Inhibition Rate (%) ([2]; 10^-6 M): 91%
- A2 Receptor Inhibition Rate (%) ([2]; 10^-7 M): 85%

SMILES: C=CCn1c(=O)c2c(nc(/C=C/c3cc(OC)c(OC(C)=O)c(OC)c3)n2C)n(CC=C)c1=O [Compound 19, (E)-8-(4-Acetoxy-3,5-dimethoxystyryl)-1,3-diallyl-7-methylxanthine]
- A2 Receptor Inhibition Rate (%) ([2]; 10^-6 M): 96%
- A2 Receptor Inhibition Rate (%) ([2]; 10^-7 M): 91%

SMILES: CCn1c(=O)c2c(nc(/C=C/c3cccc(OC(=O)c4ccccc4)c3)n2C)n(CC)c1=O [Compound 22, (E)-8-(3-Benzoyloxystyryl)-1,3-diethyl-7-methylxanthine]
- A2 Receptor Inhibition Rate (%) ([2]; 10^-6 M): 99%
- A2 Receptor Inhibition Rate (%) ([2]; 10^-7 M): 92%

SMILES: CCn1c(=O)c2c(nc(/C=C/c3cc(OC)ccc3OC(C)=O)n2C)n(CC)c1=O [Compound 23, (E)-8-(2-Acetoxy-5-methoxystyryl)-1,3-diethyl-7-methylxanthine]
- A2 Receptor Inhibition Rate (%) ([2]; 10^-6 M): 101%
- A2 Receptor Inhibition Rate (%) ([2]; 10^-7 M): 90%

SMILES: CCCn1c(=O)c2c(nc(/C=C/c3cc(OC(C)=O)cc(OC(C)=O)c3)n2C)n(CCC)c1=O [Compound 9, (E)-8-(3,5-Diacetoxystyryl)-7-methyl-1,3-dipropylxanthine]
- A2 Receptor Inhibition Rate (%) ([2]; 10^-6 M): 96%
- A2 Receptor Inhibition Rate (%) ([2]; 10^-7 M): 88%

SMILES: CCn1c(=O)c2c(nc(/C=C/c3cc(OC)c(OC(=O)c4ccccc4)c(OC)c3)n2C)n(CC)c1=O [Compound 18, (E)-8-(4-Benzoyloxy-3,5-dimethoxystyryl)-1,3-diethyl-7-methylxanthine]
- A2 Receptor Inhibition Rate (%) ([2]; 10^-6 M): 97%
- A2 Receptor Inhibition Rate (%) ([2]; 10^-7 M): 82%
- Total Score (catalepsy) ([3]; 10 mice (max 50 points)): 30
- Number of Animals Showing Remission [3, 6]: 7
- inhibition in vivo at 10 mg/kg ([3]; 10 mice): 40%

SMILES: CCn1c(=O)c2c(nc(/C=C/c3cccc(OC(C)=O)c3OC(C)=O)n2C)n(CC)c1=O [Compound 26, (E)-8-(2,3-Diacetoxystyryl)-1,3-diethyl-7-methylxanthine]
- A2 Receptor Inhibition Rate (%) ([2]; 10^-6 M): 101%
- A2 Receptor Inhibition Rate (%) ([2]; 10^-7 M): 75%

SMILES: CCCn1c(=O)c2c(nc(/C=C/c3ccc(OC)c(OC(C)=O)c3)n2C)n(CCC)c1=O [Compound 3, (E)-8-(3-Acetoxy-4-methoxystyryl)-7-methyl-1,3-dipropylxanthine]
- A2 Receptor Inhibition Rate (%) ([2]; 10^-6 M): 96%
- A2 Receptor Inhibition Rate (%) ([2]; 10^-7 M): 61%

SMILES: CCn1c(=O)c2c(nc(/C=C/c3ccc(OC(=O)C(C)(C)C)c(OC)c3)n2C)n(CC)c1=O [Compound 13, (E)-1,3-Diethyl-8-(3-methoxy-4-pivaloyloxystyryl)-7-methylxanthine]
- Ratio of Attacks: Test Compd.-Treated Group/Control Group ([1]; 2.5 mg/kg): 10.1
- Number of the Biting Attacks (mean ± S.E.M.), Test Compound-Treated Group ([1]; 2.5 mg/kg): 24.3 ± 6.6
- Total Score (catalepsy) ([3]; 10 mice (max 50 points)): 14
- Number of Animals Showing Remission [3, 6]: 9
- inhibition in vivo at 10 mg/kg ([3]; 10 mice): 72%
